In patent publication US8138189B2, “Substituted benzene compounds as modulators of the glucocorticoid receptor” (Hoffman-La Roche Inc., priority 2009, dated 2012) one finds Ki data, which are given here for 24 molecules.

The Ki is a dissociation constant, usually derived from enzyme kinetics or from competition with a known ligand.

This test has as its target T1, full length human recombinant glucocorticoid receptor (Homo sapiens, UniProt P04150).
T1 construct: partially purified full length human recombinant glucocorticoid receptor; purchased Panvera/Invitrogen PV4302
T1 sequence (P04150 1-777): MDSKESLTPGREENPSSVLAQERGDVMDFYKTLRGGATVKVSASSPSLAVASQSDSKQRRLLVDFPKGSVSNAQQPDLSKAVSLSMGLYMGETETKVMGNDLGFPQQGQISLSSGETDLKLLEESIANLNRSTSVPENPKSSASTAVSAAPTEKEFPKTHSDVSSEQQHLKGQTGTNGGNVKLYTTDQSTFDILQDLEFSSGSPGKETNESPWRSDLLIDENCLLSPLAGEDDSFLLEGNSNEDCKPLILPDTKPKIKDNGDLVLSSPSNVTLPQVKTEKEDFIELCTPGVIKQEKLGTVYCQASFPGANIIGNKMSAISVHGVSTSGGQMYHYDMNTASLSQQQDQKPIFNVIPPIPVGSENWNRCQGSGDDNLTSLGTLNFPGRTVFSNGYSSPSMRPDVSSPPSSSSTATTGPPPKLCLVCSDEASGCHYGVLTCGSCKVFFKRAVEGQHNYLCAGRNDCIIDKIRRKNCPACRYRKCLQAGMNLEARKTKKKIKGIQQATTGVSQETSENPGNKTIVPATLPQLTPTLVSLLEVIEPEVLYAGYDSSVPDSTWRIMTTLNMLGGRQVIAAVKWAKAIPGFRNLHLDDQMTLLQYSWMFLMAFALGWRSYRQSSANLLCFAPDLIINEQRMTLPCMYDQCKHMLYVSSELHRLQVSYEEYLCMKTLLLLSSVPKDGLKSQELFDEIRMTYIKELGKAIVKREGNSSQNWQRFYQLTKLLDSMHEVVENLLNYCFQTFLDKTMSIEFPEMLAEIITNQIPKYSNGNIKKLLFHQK
The experiment in a line: Glucocorticoid Receptor Binding Assay (fluorescence polarization competitor assay, Fluormone GS Far Red tracer). In a few lines:
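Serially diluted compounds competed with the tight-binding far-red fluorescent ligand for recombinant full-length human glucocorticoid receptor plus GR-stabilizing peptide (screening buffer pH 7.4; 3 h, 22 °C, dark). Polarization (610-660 nm) gave IC50 via sigmoidal dose-response fits, and Ki was derived by Cheng-Prusoff from tracer concentration and Kd.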

Take `C[C@H](c1ccc(Oc2ncc(C(=O)O)cc2Cl)cc1Cl)[C@@](O)(c1ccc(C#N)n1C)C(F)(F)F` (stereo in doubt) [Example 233, 5-Chloro-6-{3-chloro-4-[2-(5-cyano-1-methyl-1H-pyrrol-2-yl)-3,3,3-trifluoro-2-hydroxy-1-methyl-propyl]-phenoxy}-nicotinic acid]: the inhibitory constant (Ki) was found to be 3.9 nM.

For the molecule `Cc1cc([C@](O)([C@H](C)c2ccc(Oc3ncc(C(=O)O)cc3Cl)cc2Cl)C(F)(F)F)sc1C#N` (stereo in doubt) [Example 234, 5-Chloro-6-{3-chloro-4-[2-(5-cyano-4-methyl-thiophen-2-yl)-3,3,3-trifluoro-2-hydroxy-1-methyl-propyl]-phenoxy}-nicotinic acid], the Ki came out at 1.3 nM.

Turning to `C[C@H](c1ccc(Oc2ccc(C(=O)O)cn2)cc1Cl)[C@@](O)(c1ccc(C#N)n1C)C(F)(F)F` (stereo in doubt) [Example 236, 6-{3-Chloro-4-[2-(5-cyano-1-methyl-1H-pyrrol-2-yl)-3,3,3-trifluoro-2-hydroxy-1-methyl-propyl]-phenoxy}-nicotinic acid], the Ki came to 22.3 nM.

As to `C[C@H](c1ccc(Oc2cnc(C(=O)O)cn2)c(Cl)c1Cl)[C@@](O)(c1ccc(=O)n(C)c1)C(F)(F)F` (stereo in doubt) [Example 238, 5-{2,3-Dichloro-4-[3,3,3-trifluoro-2-hydroxy-1-methyl-2-(1-methyl-6-oxo-1,6-dihydro-pyridin-3-yl)-propyl]-phenoxy}-pyrazine-2-carboxylic acid], the inhibition constant Ki is 112 nM.

With `C[C@@H](c1ccc(OC(C)(C)C(=O)O)c(Cl)c1Cl)[C@](O)(c1ccc(=O)n(C)c1)C(F)(F)F` (stereo in doubt) [Example 240, 2-{2,3-Dichloro-4-[3,3,3-trifluoro-2-hydroxy-1-methyl-2-(1-methyl-6-oxo-1,6-dihydro-pyridin-3-yl)-propyl]-phenoxy}-2-methyl-propionic acid], the inhibitory constant (Ki) came out at 82.2 nM.

As for `COC(=O)c1cnc(Oc2ccc([C@H](C)[C@](O)(c3cc(C)c(=O)n(C)c3)C(F)(F)F)c(Cl)c2)nc1C(F)(F)F` (stereo in doubt) [Example 242, 2-{3-Chloro-4-[2-(1,5-dimethyl-6-oxo-1,6-dihydro-pyridin-3-yl)-3,3,3-trifluoro-2-hydroxy-1-methyl-propyl]-phenoxy}-4-trifluoromethyl-pyrimidine-5-carboxylic acid methyl ester], the Ki is 2.7 nM.

As to `Cc1cc([C@@](O)([C@@H](C)c2ccc(Oc3ncc(C(=O)O)c(C(F)(F)F)n3)cc2Cl)C(F)(F)F)cn(C)c1=O` (stereo in doubt) [Example 243, 2-{3-Chloro-4-[2-(1,5-dimethyl-6-oxo-1,6-dihydro-pyridin-3-yl)-3,3,3-trifluoro-2-hydroxy-1-methyl-propyl]-phenoxy}-4-trifluoromethyl-pyrimidine-5-carboxylic acid], the inhibition constant Ki was found to be 1.8 nM.

In the case of `COC(=O)c1cnc(Oc2ccc([C@H](C)[C@](O)(c3cc(C)c(=O)n(C)c3)C(F)(F)F)c(Cl)c2)c(Cl)c1` (stereo in doubt) [Example 250, 5-Chloro-6-{3-chloro-4-[2-(1,5-dimethyl-6-oxo-1,6-dihydro-pyridin-3-yl)-3,3,3-trifluoro-2-hydroxy-1-methyl-propyl]-phenoxy}-nicotinic acid methyl ester], the inhibition constant Ki came to 3 nM.

Take `Cc1cc([C@@](O)([C@@H](C)c2ccc(Oc3ncc(C(=O)O)cc3Cl)cc2Cl)C(F)(F)F)cn(C)c1=O` (stereo in doubt) [Example 251, 5-Chloro-6-{3-chloro-4-[2-(1,5-dimethyl-6-oxo-1,6-dihydro-pyridin-3-yl)-3,3,3-trifluoro-2-hydroxy-1-methyl-propyl]-phenoxy}-nicotinic acid]: the Ki amounted to 0.5 nM.

For `Cc1cc([C@@](O)([C@@H](C)c2ccc(Oc3ncc(C(=O)O)cn3)cc2Cl)C(F)(F)F)cn(C)c1=O` (stereo in doubt) [Example 254, 2-{3-Chloro-4-[2-(1,5-dimethyl-6-oxo-1,6-dihydro-pyridin-3-yl)-3,3,3-trifluoro-2-hydroxy-1-methyl-propyl]-phenoxy}-pyrimidine-5-carboxylic acid], the Ki came to 9.5 nM.

For `Cc1nc(Oc2ccc([C@H](C)[C@](O)(c3cc(C)c(=O)n(C)c3)C(F)(F)F)c(Cl)c2)ccc1C(=O)O` (stereo in doubt) [Example 255, 6-{3-Chloro-4-[2-(1,5-dimethyl-6-oxo-1,6-dihydro-pyridin-3-yl)-3,3,3-trifluoro-2-hydroxy-1-methyl-propyl]-phenoxy}-2-methyl-nicotinic acid], the Ki was found to be 3.6 nM.

With `Cc1cnc(C(O)(C(C)c2ccc(OCc3ccc(C(=O)O)cc3)cc2Cl)C(F)(F)F)cn1` (stereo not drawn) [Example 2, 4-{3-Chloro-4-[3,3,3-trifluoro-2-hydroxy-1-methyl-2-(5-methyl-pyrazin-2-yl)-propyl]-phenoxymethyl}-benzoic acid], the Ki is 21.5 nM.

`COC(=O)c1cccc(COc2ccc(C(C)C(O)(c3cnc(C)cn3)C(F)(F)F)c(Cl)c2)c1` (stereo not drawn) [Example 3, 3-{3-Chloro-4-[3,3,3-trifluoro-2-hydroxy-1-methyl-2-(5-methyl-pyrazin-2-yl)-propyl]-phenoxymethyl}-benzoic acid methyl ester]: the inhibition constant (Ki) turned out to be 52.7 nM.

On to `Cc1cnc(C(O)(C(C)c2ccc(OCc3cccc(C(=O)O)c3)cc2Cl)C(F)(F)F)cn1` (stereo not drawn) [Example 4, 3-{3-Chloro-4-[3,3,3-trifluoro-2-hydroxy-1-methyl-2-(5-methyl-pyrazin-2-yl)-propyl]-phenoxymethyl}-benzoic acid], for which the Ki worked out at 175 nM.

Take `CCOC(=O)c1ccc(COc2ccc([C@@H](C)[C@@](O)(c3cnc(C)cn3)C(F)(F)F)c(Cl)c2)cc1` [Example 5, 4-{3-Chloro-4-[(1R,2R)-3,3,3-trifluoro-2-hydroxy-1-methyl-2-(5-methyl-pyrazin-2-yl)-propyl]-phenoxymethyl}-benzoic acid ethyl ester]: the Ki stood at 418 nM.

As to `Cc1cnc([C@](O)([C@H](C)c2ccc(OCc3ccc(C(=O)O)cc3)cc2Cl)C(F)(F)F)cn1` [Example 6, 4-{3-Chloro-4-[(1R,2R)-3,3,3-trifluoro-2-hydroxy-1-methyl-2-(5-methyl-pyrazin-2-yl)-propyl]-phenoxymethyl}-benzoic acid], the inhibition constant Ki was 8.2 nM.

`COC(=O)c1ccc(OCCOc2ccc(C(C)C(O)(c3cnc(C)cn3)C(F)(F)F)c(Cl)c2)cc1` (stereo not drawn) [Example 9, 4-(2-{3-Chloro-4-[3,3,3-trifluoro-2-hydroxy-1-methyl-2-(5-methyl-pyrazin-2-yl)-propyl]-phenoxy}-ethoxy)-benzoic acid methyl ester]: the Ki stood at 119 nM.

Regarding `Cc1cnc(C(O)(C(C)c2ccc(OCCOc3ccc(C(=O)O)cc3)cc2Cl)C(F)(F)F)cn1` (stereo not drawn) [Example 10, 4-(2-{3-Chloro-4-[3,3,3-trifluoro-2-hydroxy-1-methyl-2-(5-methyl-pyrazin-2-yl)-propyl]-phenoxy}-ethoxy)-benzoic acid], the inhibition constant Ki was 307 nM.

As for `Cc1cc(C(O)(C(C)c2ccc(Oc3ccc(C(=O)O)cc3)cc2Cl)C(F)(F)F)ccn1` (stereo not drawn) [Example 58, 4-{3-Chloro-4-[3,3,3-trifluoro-2-hydroxy-1-methyl-2-(2-methyl-pyridin-4-yl)-propyl]-phenoxy}-benzoic acid], the Ki was found to be 2.4 nM.

Consider `Cc1cc(C(O)(C(C)c2ccc(Oc3cccc(C(=O)O)c3)cc2Cl)C(F)(F)F)ccn1` (stereo not drawn) [Example 59, 3-{3-Chloro-4-[3,3,3-trifluoro-2-hydroxy-1-methyl-2-(2-methyl-pyridin-4-yl)-propyl]-phenoxy}-benzoic acid], for which the inhibition constant (Ki) was 11.2 nM.

For the molecule `Cc1cc(C(O)(C(C)c2ccc(-c3cccc(C(=O)O)c3)cc2Cl)C(F)(F)F)ccn1` (stereo not drawn) [Example 61, 3′-Chloro-4′-[3,3,3-trifluoro-2-hydroxy-1-methyl-2-(2-methyl-pyridin-4-yl)-propyl]-biphenyl-3-carboxylic acid], the Ki stood at 4.9 nM.

On to `Cc1cc(C(O)(C(C)c2ccc(-c3ccc(C(=O)O)cn3)cc2Cl)C(F)(F)F)ccn1` (stereo not drawn) [Example 62, 6-{3-Chloro-4-[3,3,3-trifluoro-2-hydroxy-1-methyl-2-(2-methyl-pyridin-4-yl)-propyl]-phenyl}-nicotinic acid], for which the Ki came out at 335 nM.

On to `Cc1cc(C(O)(C(C)c2ccc(-c3cccc(CC(=O)O)c3)cc2Cl)C(F)(F)F)ccn1` (stereo not drawn) [Example 63, {3′-Chloro-4′-[3,3,3-trifluoro-2-hydroxy-1-methyl-2-(2-methyl-pyridin-4-yl)-propyl]-biphenyl-3-yl}-acetic acid], for which the Ki came to 6.4 nM.

For `Cc1cc(C(O)(C(C)c2ccc(-c3ccc(CC(=O)O)cc3)cc2Cl)C(F)(F)F)ccn1` (stereo not drawn) [Example 64, {3′-Chloro-4′-[3,3,3-trifluoro-2-hydroxy-1-methyl-2-(2-methyl-pyridin-4-yl)-propyl]-biphenyl-4-yl}-acetic acid], the inhibition constant (Ki) came to 66.3 nM.
